Time and Activity data for three compounds are collected here from ChEMBL document CHEMBL1629598, “Statistical model to evaluate in vivo activities of antimalarial drugs in a Plasmodium cynomolgi-macaque model for Plasmodium vivax malaria” (2009).

The test system of assay [1] is Plasmodium cynomolgi. The experiment in a line: Antimalarial activity against blood-stage of Plasmodium cynomolgi M infected in rhesus macaque assessed as reduction of peak parasitemia days at 3 mg/kg, po qd for 4 consecutive days. The class given is functional.
For assay [2], the system named is Plasmodium cynomolgi. Description: Antimalarial activity against blood-stage of Plasmodium cynomolgi M infected in rhesus macaque assessed as reduction of peak parasitemia days at 3 to 27 mg/kg, po qd for 4 consecutive days. In kind it is functional. Conditions: dose mg/kg 3-27.
Assay [3] relates to Plasmodium cynomolgi. Description: Antimalarial activity against blood-stage of Plasmodium cynomolgi M infected in rhesus macaque assessed as reduction of parasitemia days at 3 mg/kg, po qd after 4 to 5 days. In kind it is functional, organism-based. Also noted: dose 3 mg/kg.
For assay [4], the system named is Plasmodium cynomolgi. Description: Antimalarial activity against blood-stage of Plasmodium cynomolgi M infected in rhesus macaque assessed as reduction of parasitemia at 3 to 27 mg/kg, po qd for 8 consecutive days (reference value: 3%). Conditions: dose mg/kg 3-27. The class given is functional. Also on record: scale not given: the % may be the effect or the level left.

For assay [5], the system named is Plasmodium cynomolgi. The experiment in a line: Antimalarial activity against blood-stage of Plasmodium cynomolgi M infected in rhesus macaque assessed as reduction of parasitemia days at 9 mg/kg, po qd after 4 to 5 days. Also noted: dose 9 mg/kg. The class given is functional, organism-based.
For assay [6], the system named is Plasmodium cynomolgi. Description: Antimalarial activity against blood-stage of Plasmodium cynomolgi M infected in rhesus macaque assessed as reduction of parasitemia days at 27 mg/kg, po qd after 4 to 5 days. The class given is functional, organism-based. Also noted: dose 27 mg/kg.
The test system of assay [7] is Plasmodium cynomolgi. Description: Antimalarial activity against blood-stage of Plasmodium cynomolgi M infected in rhesus macaque assessed as reduction of peak parasitemia days at 9 mg/kg, po qd for 4 consecutive days. The class given is functional.
Assay [8] has as its system Plasmodium cynomolgi. Description: Antimalarial activity against blood-stage of Plasmodium cynomolgi M infected in rhesus macaque assessed as reduction of peak parasitemia days at 27 mg/kg, po qd for 4 consecutive days. In kind it is functional.
For assay [9], the system named is Plasmodium cynomolgi. Description: Antimalarial activity against blood-stage of Plasmodium cynomolgi M infected in rhesus macaque assessed as reduction of peak parasitemia days at 40 mg/kg, po qd for 8 consecutive days. In kind it is functional.
The subject of assay [10] is Plasmodium cynomolgi. The experiment in a line: Antimalarial activity against blood-stage of Plasmodium cynomolgi M infected in rhesus macaque assessed as complete cure at 40 mg/kg, po qd after 4 days. In kind it is functional, organism-based. Also on record: dose 40 mg/kg.
The test system of assay [11] is Plasmodium cynomolgi. Description: Antimalarial activity against blood-stage of Plasmodium cynomolgi M infected in rhesus macaque assessed as reduction of parasitemia at 40 mg/kg, po qd for 8 consecutive days (reference value: 4.7%). Also on record: scale not given: the % may be the effect or the level left. The class given is functional.
The subject of assay [12] is Plasmodium cynomolgi. Description: Antimalarial activity against blood-stage of Plasmodium cynomolgi M infected in rhesus macaque assessed as reduction of parasitemia administered intramuscularly twice daily for 8 consecutive days measured on day 28 (reference value: 6.1%). In kind it is functional. Also noted: scale not given: the % may be the effect or the level left.

Assay [13] concerns Plasmodium cynomolgi. The experiment in a line: Antimalarial activity against blood-stage of Plasmodium cynomolgi M infected in rhesus macaque assessed as reduction of peak parasitemia days administered intramuscularly twice daily measured after 2nd dose (reference value: 3.5%). The class given is functional.
Assay [14] has as its system Plasmodium cynomolgi. Description: Antimalarial activity against blood-stage of Plasmodium cynomolgi M infected in rhesus macaque assessed as reduction of peak parasitemia administered intramuscularly twice daily measured on day 3. The class given is functional, organism-based.

Structures are written as SMILES. Active and inactive are the calls of the source. The rule behind the calls is not given here.

`C/C(=C1\CCOC(=O)S1)N(C=O)CCCCCCCCCCCCN(C=O)/C(C)=C1/CCOC(=O)S1`: the Time turned out to be 2 days in the assay with Plasmodium cynomolgi [1], 1.9 days in the assay with Plasmodium cynomolgi [2], 1.7 days in the assay on Plasmodium cynomolgi [7] and 1.6 days in the assay on Plasmodium cynomolgi [8]. Further, the result in the assay on Plasmodium cynomolgi [3], in the assay on Plasmodium cynomolgi [5] and in the assay on Plasmodium cynomolgi [6] was Active. In addition, the Activity in the assay on Plasmodium cynomolgi [4] came out at 0.6%.

Regarding `COCC/C(SC(=O)c1ccc(CN2CCOCC2)cc1)=C(\C)N(C=O)CCCCCCCCCCCCN(C=O)/C(C)=C(/CCOC)SC(=O)c1ccc(CN2CCOCC2)cc1.O=C(O)C(O)C(O)C(=O)O`, the Time with Plasmodium cynomolgi [9] came out at 1 days. The outcome in the assay with Plasmodium cynomolgi [10] was Active. The Activity with Plasmodium cynomolgi [11] was 1.5%.

In the case of `C[N+]1(CCCCCCCCCCCCCCCC[N+]2(C)CCCC2)CCCC1.[Br-].[Br-]`, the Activity in the assay on Plasmodium cynomolgi [12] came to 0.5%. In addition, in the assay with Plasmodium cynomolgi [13], the Time was found to be 0.7 days. Also, the result in the assay on Plasmodium cynomolgi [14] was Active.
